RP-LC retention time data for 79 compounds are collected here from the METLIN SMRT retention time set (Domingo-Almenara et al. 2019).

A short description of this series: gradient 5% acetonitrile 3 min, to 50% in 2 min, to 85% in 15 min, held 3 min, 100 µL/min. The note with it: column: Zorbax Extend-C18 2.1 x 50 mm; eluents: water / acetonitrile, 0.1% formic acid. Summed up: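 Retention times come from adduct peaks that were picked computationally and then checked by hand. The standards, pure and pooled in mixtures of ~100 molecules, were run on a Zorbax Extend-C18 column (2.1 × 50 mm, 1.8 μm) at 100 μL/min with water and acetonitrile, each with 0.1% formic acid. Detection was by quadrupole time-of-flight mass spectrometry in positive and negative ionization mode, with a dead volume of 40 μL and a dwell volume of 900 μL.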
Consider `CCc1nn2c(CNC(=O)c3ccc(C)c(F)c3)c(-c3ccccc3)nc2s1`, for which the RP-LC retention time turned out to be 985 s. The compound `O=C(CS(=O)Cc1cnn(-c2ccccc2)c1-n1cccc1)NCc1ccccc1` (centres undefined) yielded an RP-LC retention time of 797 s. `Cc1nnc2ccc(C(=O)NC(C)C)cn12`: the RP-LC retention time stood at 590 s. Then `Cn1nnc2cc(CNC(=O)c3ccccn3)ccc21`, with 651 s; and `CC(C(=O)NCCN1CCN(C)CC1)n1c2ccccc2c2cnn(C)c(=O)c21` (centres undefined), with 572 s. `Cc1cc(C)n(C(C)CC(=O)N2CCN(S(=O)(=O)c3ccc(Cl)cc3)CC2)n1` (centres undefined) returned an RP-LC retention time of 750 s. Then `Cc1nc(-c2cc(S(=O)(=O)N3CCC(C(=O)N4CCCCCC4)CC3)c(C)s2)no1`, with 919 s.

In the case of `CCOCCCNC(=O)c1cc2n(n1)CCCN(Cc1cccc(C)c1)C2=O`, the RP-LC retention time is 780 s. Then `CCOc1ccc(N2CC(c3nc(-c4ccncc4)no3)CC2=O)cc1` (centres undefined), with 736 s. Next, `CCCC(NC(=O)c1ccc(OCC)c(OCC)c1)C(=O)Nc1nc2ccccc2[nH]1` (centres undefined): 733 s; `CCOC(=O)c1cccc(NC(=O)C2CCN(S(=O)(=O)c3cn(C)cn3)CC2)c1`: 735 s; `Cn1c2ccccc2c2cnn(CC(=O)N3CCN(c4ccccn4)CC3)c(=O)c21`: 943 s. Then `O=C(C1COc2ccccc2O1)N1CCCn2nc(-c3cccs3)cc2C1` (centres undefined), with 934 s; and `CC(C)NC(=O)c1ccc(OCC2CCN(C(=O)c3ccc(C#N)cc3)CC2)cc1`, with 811 s; and `Cc1nc([N+](=O)[O-])cn1-c1nc2ccccn2c1[N+](=O)[O-]`, with 753 s.

Consider `CCOC(=O)C(CC)SC1=NS(=O)(=O)c2cc(F)ccc2N1` (centres undefined), for which the RP-LC retention time was determined as 758 s. As for `CCN(CC)C(=O)c1ccc2nc(-c3ccc(Cl)cc3)cn2c1`, the RP-LC retention time came out at 681 s. Next, `O=C(Cn1cccc(-c2nc(-c3ccc(Cl)cc3)no2)c1=O)Nc1ccc(F)cc1F`: 971 s; `OCC1CN(c2ncccn2)CC12CCN(Cc1c[nH]c3ccccc13)CC2` (centres undefined): 579 s; `Cc1ccc(C)c(N2CCN(c3ccnc(SCC(=O)Nc4cccc(C)c4C)n3)CC2)c1`: 1000 s. The compound `COc1ccccc1OCC(=O)NCC1CCOCC1` had an RP-LC retention time of 675 s. For the compound `CCNC(=O)N1[C@H]2CC[C@@H]1c1cnc(-c3ccccc3)nc1C2`, the RP-LC retention time was 735 s. The compound `CCCN1C(=O)COc2ccc(-c3noc(COc4ccc(OC)cc4)n3)cc21` displayed an RP-LC retention time of 1100 s. `COc1ccc2c(c1)C1(CCN(C(=O)c3ccccc3F)C1)C(=O)N2C` (centres undefined) had an RP-LC retention time of 752 s. Regarding `Cc1cc(CNC(=O)c2cc3ccccc3o2)c(C)o1`, the RP-LC retention time amounted to 852 s. In turn, `Cc1nc(-c2cn(C(C)C)c3ncccc23)sc1C(=O)Nc1ccccc1F` registered an RP-LC retention time of 1090 s. Next, `CCOC(=O)CNC(=O)NC(C(=O)N1CCc2ccccc21)c1ccccc1` (centres undefined): 832 s; `CCc1cccc(C)c1NC(=O)Cn1c(=O)c(CCC(=O)NC2CCCC2)nc2ccccc21`: 844 s; `CC(C)NC(=O)N1CCCC(Cn2cnc3cccnc32)C1` (centres undefined): 610 s.

Turning to `COc1ccc(C(=O)N2CCc3cc(-c4csc(C)n4)ccc32)cc1F`, the RP-LC retention time was 951 s. Then `COc1ccc(-c2noc(Cn3ncn4nc(-c5ccc(F)cc5)cc4c3=O)n2)cc1OC`, with 1000 s; and `COc1ccc(CNC(=O)C2CCCN(c3nnc4ccc(Cl)cn34)C2)cc1` (centres undefined), with 657 s; and `Cc1cc2nn(CC(=O)Nc3ccccc3F)c(=O)n2c(Nc2ccccc2)n1`, with 985 s. Then `Cc1ccc(Cn2c(=O)n(CCNC(=O)c3ccc(C)s3)c3ncccc32)cc1`, with 840 s.

For `CCCCC(=O)Nc1ccc(OCc2cc(C(=O)NC3CC3)no2)cc1`, the RP-LC retention time worked out at 798 s. Compound `Cc1nc(-c2noc(-c3cccnc3)n2)cn1CC(=O)NC1CCCC1` had an RP-LC retention time of 646 s.

`O=C(Cc1ccc(Br)cc1)N1CCN(c2cc(-c3ccccc3)[nH]n2)CC1`: the RP-LC retention time amounted to 873 s. Then `Cc1oc(-c2ccccc2)nc1CN(c1ccccc1)S(=O)(=O)c1cccs1`, with 1150 s. Next, `Cc1cc(C(=O)NCc2cccnc2)c2cc(Br)ccc2n1`: 588 s; `Cc1cccc(NC(=O)Nc2cccc(-c3ccc(N4CCOCC4)nn3)c2)c1`: 714 s; `CCN1CCCn2cc(S(=O)(=O)Nc3ccc(F)c(F)c3)cc2C1=O`: 768 s. Next, `CC(C)n1cnc(S(=O)(=O)N2CCC(C(=O)N3CCN(c4ccccc4F)CC3)CC2)c1`: 807 s; `O=C(O)c1ccc2c(c1)C(=O)N(Nc1ccccc1[N+](=O)[O-])C2=O`: 953 s.

`CCCNc1cc(N2CCC(CCC(=O)NCc3ccccn3)CC2)ncn1` yielded an RP-LC retention time of 556 s. Regarding `COc1ccc(-c2nc(-c3ccc(-c4ccc(Cl)cc4)o3)[nH]c2-c2ccc(OC)cc2)cc1`, the RP-LC retention time amounted to 988 s. Next, `Cc1cc(=O)n(CC(=O)Nc2ccc(C(F)(F)F)cc2)c(N2CCOCC2)n1`: 759 s; `c1cncc(-c2nc3ccccc3s2)c1`: 873 s. Compound `Cc1ccc(-n2nc3c(N4CCN(C(=O)NC(C)C)CC4)nnc(C)c3c2C)cc1` showed an RP-LC retention time of 675 s. `CC1(C)CC(=O)c2cn(-c3ccc(F)cc3)c(=O)c(C(=O)Nc3cccnc3)c2C1` showed an RP-LC retention time of 707 s. Compound `O=C(NC1CC1)c1nnc(-c2ccc(S(=O)(=O)N3CCCCC3)cc2)o1` returned an RP-LC retention time of 804 s. Next, `O=C1CN(S(=O)(=O)c2ccc(F)c(Cl)c2)CC2(CCOCC2)N1CC1CC1`: 881 s; `Cc1ccc(OCc2nc(C3CN(C(=O)C4(c5ccccc5)CC4)C3)no2)cc1`: 1030 s. `Cc1nn(C2CCS(=O)(=O)C2)c(C)c1C(=O)O` (centres undefined) gave an RP-LC retention time of 571 s. In turn, `O=C(NCc1ccc(F)cc1F)c1ccc2c(c1)nc1n2CCN(C2CCCCC2)C1=O` had an RP-LC retention time of 806 s. Compound `COc1ncc(C(=O)NC(C)c2ccc(F)cc2)cn1` (centres undefined) returned an RP-LC retention time of 756 s. `CCOC(=O)N1CCN(C(=O)CSc2nnc3n2CCN3c2ccc(OC)cc2)CC1` gave an RP-LC retention time of 623 s. Regarding `O=c1c2sccc2n(Cc2nc(-c3ccccc3)no2)c(=O)n1-c1cccc(F)c1`, the RP-LC retention time amounted to 959 s. Then `O=C(Nc1ccc2nc(N3CCN(C4CCCCC4)CC3)cc(C(=O)O)c2c1)c1ccccc1Cl`, with 627 s; and `COc1ccc(-c2cn3ccn(-c4ccc(OC)c(OC)c4)c(=O)c3n2)cc1`, with 732 s. `CN(CC(=O)N1CCN(c2ccccc2F)CC1)S(=O)(=O)c1c[nH]c(C(=O)N2CCCCC2)c1` came in with an RP-LC retention time of 836 s. Next, `O=C(c1cc2ccc3cccnc3c2[nH]1)N1CCN(c2ccccn2)CC1`: 596 s; `O=C(c1cccs1)N1CCN(Cc2ccc(=O)n(CC3CC3)c2)CC1`: 480 s; `CCC(C)N1C(=O)CN(C2CCCCCC2)C(=O)C1c1ccccc1F` (centres undefined): 1020 s.

In turn, `COc1ccc(C(=S)N2CCN(c3ccccc3Cl)CC2)cc1OC` came in with an RP-LC retention time of 1260 s. Compound `CCc1nc2cc(N3CCC(C(=O)N4CCN(CC)CC4)CC3)cnc2nc1CC` gave an RP-LC retention time of 590 s. Next, `CS(=O)(=O)c1ccc(NC(=O)CSc2ccc(N3CCCC(C(=O)NC4CC4)C3)nn2)cc1` (centres undefined): 608 s; `OC[C@@H]1CN(Cc2ccncc2F)C[C@H]1c1nc(C2CC2)no1`: 562 s; `COc1ccc(-c2nc(NC3CC3)c3ccccc3n2)cc1`: 706 s. Next, `Cc1cccc(S(=O)(=O)N2CCc3nc(-c4ccc(F)cc4)ncc3C2)c1`: 1140 s; `CCn1cnc(S(=O)(=O)N2CCC(C(=O)Nc3nccs3)CC2)c1`: 636 s. Then `O=C(Cn1cnc2c(-c3ccc(F)cc3)csc2c1=O)Nc1cc(F)ccc1F`, with 967 s. `Cc1cc(NC(=O)CN2CCc3nc(NC(=O)C4CC4)sc3C2)no1` showed an RP-LC retention time of 546 s. Then `Cc1ccc(CNC(=O)Cn2ccc3ccc(-c4nnc(C)o4)cc32)o1`, with 729 s; and `O=C(NCc1ccc2c(c1)OCO2)C1CC(=O)N(c2ccc3c(c2)CCN3C(=O)C2CC2)C1` (centres undefined), with 714 s. In the case of `O=C(NCCc1c[nH]c2ccccc12)C1CC(=O)N(CCc2ccccc2)C1` (centres undefined), the RP-LC retention time was determined as 758 s.

For the compound `O=C(CCNc1c(-c2ccc(F)cc2)nc2cnccn12)NCc1ccc2c(c1)OCO2`, the RP-LC retention time came out at 716 s. Then `Cc1nc(CCNC(=O)Cc2ccsc2)no1`, with 640 s; and `CCc1noc(NC(C)=O)c1-c1ccc(OC)c(S(=O)(=O)N2CCc3ccccc3C2)c1`, with 628 s; and `COC(=O)c1ccc2c(=O)n(-c3ccc4c(c3)OCO4)c(N3CCCCC3)nc2c1`, with 1080 s.
